These results are taken from ChEMBL document CHEMBL1144896 (2003).

The subject of assay [1] is BJ. In words: Compound was tested for human telomerase reverse transcriptase-SEAP (hTERT-SEAP) activity in immortalized hTERT-BJI at 230.0 uM concentration. Format: functional.
Assay [2] deals with BJ. The assay is described as follows: hTERT-SEAP (Human telomerase reverse transcriptase-SEAP) activity in immortalized hTERT-BJI at 230.0 uM concentration and level of cell viability determined in MTT assay. Format: functional.
The subject of assay [3] is NCI-H1299. In words: Compound was tested for human telomerase reverse transcriptase-SEAP (hTERT-SEAP) activity in non-small cell lung cancer H1299 cell at 230.0 uM concentration. The class given is functional.
The subject of assay [4] is NCI-H1299. The assay is described as follows: Compound was tested for human telomerase reverse transcriptase-SEAP (hTERT-SEAP) activity in non-small cell lung cancer H1299 cell at 23 uM concentration. The class given is functional.
The subject of assay [5] is BJ. In words: hTERT-SEAP (Human telomerase reverse transcriptase-SEAP) activity in immortalized hTERT-BJI at 23 uM concentration and level of cell viability determined in MTT assay. Format: functional. In general terms: Tetrazolium dyes change colour on reduction, which living cells bring about.
In assay [6] the test system is NCI-H1299. In words: hTERT-SEAP (Human telomerase reverse transcriptase-SEAP) activity in non-small cell lung cancer H1299 cell at 2.3 uM concentration and level of cell viability determined in MTT assay. The class given is functional.
Assay [7] has as its system NCI-H1299. In words: hTERT-SEAP (Human telomerase reverse transcriptase-SEAP) activity in non-small cell lung cancer H1299 cell at 23 uM concentration and level of cell viability determined in MTT assay. The class given is functional.
Assay [8] has as its system NCI-H1299. The assay is described as follows: Compound was tested for human telomerase reverse transcriptase-SEAP (hTERT-SEAP) activity in non-small cell lung cancer H1299 cell at 2.3 uM concentration. Format: functional.
The subject of assay [9] is BJ. The assay is described as follows: Compound was tested for human telomerase reverse transcriptase-SEAP (hTERT-SEAP) activity in immortalized hTERT-BJI at 23 uM concentration. The class given is functional.
The test system of assay [10] is NCI-H1299. The assay is described as follows: hTERT-SEAP (Human telomerase reverse transcriptase-SEAP) activity in non-small cell lung cancer H1299 cell at 230.0 uM concentration and level of cell viability determined in MTT assay. Format: functional.
Assay [11] relates to NCI-H1299. The assay is described as follows: Compound was tested for human telomerase reverse transcriptase-SEAP (hTERT-SEAP) activity in non-small cell lung cancer H1299 cell at 2.2 uM concentration. Format: functional.
For assay [12], the system named is BJ. In words: pPCMV-SEAP (cytomegalovirus-SEAP) activity in immortalized hTERT-BJ1 at 220 uM concentration and level of cell viability determined in MTT assay. Format: functional, Homo sapiens.
Assay [13] relates to NCI-H1299. In words: Compound was tested for human telomerase reverse transcriptase-SEAP (hTERT-SEAP) activity in non-small cell lung cancer H1299 cell at 220.0 uM concentration. The class given is functional.
Assay [14] concerns BJ. In words: Compound was tested for cytomegalovirus or (pPCMV-SEAP) activity in immortalized hTERT-BJ1 at 220 uM concentration. The class given is functional, Homo sapiens.
Assay [15] deals with BJ. In words: Compound was tested for human telomerase reverse transcriptase-SEAP (hTERT-SEAP) activity in immortalized hTERT-BJI at 220.0 uM concentration. The class given is functional.
The test system of assay [16] is BJ. The assay is described as follows: pPCMV-SEAP (cytomegalovirus-SEAP) activity in immortalized hTERT-BJ1 at 22 uM concentration and level of cell viability determined in MTT assay. The class given is functional, Homo sapiens.
The test system of assay [17] is BJ. The assay is described as follows: Compound was tested for cytomegalovirus or (pPCMV-SEAP) activity in immortalized hTERT-BJ1 at 2.2 uM concentration. Format: functional, Homo sapiens.
Assay [18] relates to NCI-H1299. In words: hTERT-SEAP (Human telomerase reverse transcriptase-SEAP) activity in non-small cell lung cancer H1299 cell at 2.2 uM concentration and level of cell viability determined in MTT assay. The class given is functional.
For assay [19], the system named is NCI-H1299. The assay is described as follows: hTERT-SEAP (Human telomerase reverse transcriptase-SEAP) activity in non-small cell lung cancer H1299 cell at 220.0 uM concentration and level of cell viability determined in MTT assay. The class given is functional.
The test system of assay [20] is NCI-H1299. In words: Compound was tested for human telomerase reverse transcriptase-SEAP (hTERT-SEAP) activity in non-small cell lung cancer H1299 cell at 22 uM concentration. Format: functional.
Assay [21] has as its system BJ. In words: hTERT-SEAP (Human telomerase reverse transcriptase-SEAP) activity in immortalized hTERT-BJI at 220.0 uM concentration and level of cell viability determined in MTT assay. The class given is functional.
The subject of assay [22] is NCI-H1299. The assay is described as follows: hTERT-SEAP (Human telomerase reverse transcriptase-SEAP) activity in non-small cell lung cancer H1299 cell at 22 uM concentration and level of cell viability determined in MTT assay. Format: functional.
Assay [23] relates to BJ. The assay is described as follows: hTERT-SEAP (Human telomerase reverse transcriptase-SEAP) activity in immortalized hTERT-BJI at 22 uM concentration and level of cell viability determined in MTT assay. The class given is functional.
For assay [24], the system named is BJ. In words: hTERT-SEAP (Human telomerase reverse transcriptase-SEAP) activity in immortalized hTERT-BJI at 2.2 uM concentration and level of cell viability determined in MTT assay. Format: functional.
Assay [25] concerns BJ. In words: pPCMV-SEAP (cytomegalovirus-SEAP) activity in immortalized hTERT-BJ1 at 2.2 uM concentration and level of cell viability determined in MTT assay. Format: functional, Homo sapiens.
The test system of assay [26] is BJ. In words: Compound was tested for human telomerase reverse transcriptase-SEAP (hTERT-SEAP) activity in immortalized hTERT-BJI at 2.2 uM concentration. Format: functional.
Assay [27] relates to BJ. In words: Compound was tested for cytomegalovirus or (pPCMV-SEAP) activity in immortalized hTERT-BJ1 at 22 uM concentration. The class given is functional, Homo sapiens.
Assay [28] relates to BJ. The assay is described as follows: Compound was tested for human telomerase reverse transcriptase-SEAP (hTERT-SEAP) activity in immortalized hTERT-BJI at 22 uM concentration. The class given is functional.
For assay [29], the system named is NCI-H1299. In words: Compound was tested for human telomerase reverse transcriptase-SEAP (hTERT-SEAP) activity in non-small cell lung cancer H1299 cell at 280.0 uM concentration. Format: functional.
The subject of assay [30] is NCI-H1299. The assay is described as follows: hTERT-SEAP (Human telomerase reverse transcriptase-SEAP) activity in non-small cell lung cancer H1299 cell at 2.8 uM concentration and level of cell viability determined in MTT assay. The class given is functional.
Assay [31] has as its system BJ. The assay is described as follows: hTERT-SEAP (Human telomerase reverse transcriptase-SEAP) activity in immortalized hTERT-BJI at 280.0 uM concentration and level of cell viability determined in MTT assay. The class given is functional.
The test system of assay [32] is NCI-H1299. The assay is described as follows: hTERT-SEAP (Human telomerase reverse transcriptase-SEAP) activity in non-small cell lung cancer H1299 cell at 28 uM concentration and level of cell viability determined in MTT assay. Format: functional.
Assay [33] has as its system BJ. The assay is described as follows: hTERT-SEAP (Human telomerase reverse transcriptase-SEAP) activity in immortalized hTERT-BJI at 2.8 uM concentration and level of cell viability determined in MTT assay. The class given is functional.
The subject of assay [34] is BJ. The assay is described as follows: Compound was tested for human telomerase reverse transcriptase-SEAP (hTERT-SEAP) activity in immortalized hTERT-BJI at 280.0 uM concentration. The class given is functional.
Assay [35] deals with NCI-H1299. The assay is described as follows: Compound was tested for human telomerase reverse transcriptase-SEAP (hTERT-SEAP) activity in non-small cell lung cancer H1299 cell at 2.8 uM concentration. The class given is functional.
In assay [36] the test system is BJ. The assay is described as follows: Compound was tested for human telomerase reverse transcriptase-SEAP (hTERT-SEAP) activity in immortalized hTERT-BJI at 28.0 uM concentration. Format: functional.
The subject of assay [37] is NCI-H1299. In words: Compound was tested for human telomerase reverse transcriptase-SEAP (hTERT-SEAP) activity in non-small cell lung cancer H1299 cell at 28.0 uM concentration. Format: functional.
Assay [38] deals with BJ. In words: hTERT-SEAP (Human telomerase reverse transcriptase-SEAP) activity in immortalized hTERT-BJI at 28.0 uM concentration and level of cell viability determined in MTT assay. Format: functional.
Assay [39] has as its system NCI-H1299. The assay is described as follows: hTERT-SEAP (Human telomerase reverse transcriptase-SEAP) activity in non-small cell lung cancer H1299 cell at 280.0 uM concentration and level of cell viability determined in MTT assay. Format: functional.
For assay [40], the system named is BJ. In words: Compound was tested for human telomerase reverse transcriptase-SEAP (hTERT-SEAP) activity in immortalized hTERT-BJI at 2.8 uM concentration. Format: functional.

`CCCCCC(=O)Oc1cccc2c1C(=O)c1cccc(OC(=O)CCCCC)c1C2=O`: the “Relative SEAP activity” value in the assay with BJ [1] amounted to 124%; in the assay with NCI-H1299 [3], 95%; with NCI-H1299 [4] it was 95%; in the assay with NCI-H1299 [8], 91%; in the assay with BJ [9] it was 149%. Further, the Relative viability amounted to 62% with BJ [2]; 98% in the assay on BJ [5]; 117% in the assay on NCI-H1299 [6]; 114% in the assay on NCI-H1299 [7]; 106% in the assay on NCI-H1299 [10].

Take `O=C1c2cccc(Sc3nccc(O)n3)c2C(=O)c2cccc(Sc3nccc(O)n3)c21`: the “Relative SEAP activity” value in the assay on NCI-H1299 [11] was 92%; with NCI-H1299 [13], 93%; with BJ [14] it was 120%; with BJ [15] it was 145%; in the assay on BJ [17], 112%; in the assay with NCI-H1299 [20], 97%. Besides, the “Relative SEAP activity” value in the assay on BJ [26] turned out to be 93%; in the assay on BJ [27], 105%; with BJ [28], 116%. The Relative viability in the assay on BJ [12] is on record as 78%; in the assay with BJ [16], 118%; with NCI-H1299 [18], 99%; in the assay with NCI-H1299 [19], 51%; with BJ [21], 89%; in the assay on NCI-H1299 [22], 95%. In addition, the Relative viability was determined as 106% with BJ [23], 104% with BJ [24] and 107% in the assay on BJ [25].

On to `CCCSc1cccc2c1C(=O)c1cccc(SCCC)c1C2=O`, for which the “Relative SEAP activity” value worked out at 17% in the assay on NCI-H1299 [29]; 122% in the assay with BJ [34]; 73% in the assay with NCI-H1299 [35]; 110% in the assay with BJ [36]; 29% in the assay with NCI-H1299 [37]; 132% with BJ [40]. Also, the Relative viability with NCI-H1299 [30] came out at 96%; in the assay with BJ [31], 39%; in the assay with NCI-H1299 [32], 44%; in the assay on BJ [33], 103%; with BJ [38], 97%; in the assay on NCI-H1299 [39] it was 25%.
